Measured values published in article PMC12858467, “In vitro toxicokinetics and metabolic profiling of methoxycathinones and methylthiocathinones using human liver systems and hyphenated mass spectrometry” (Archives of Toxicology, 2025).
Read-outs that look alike come from different tables or passages of the source.

Key:
Format in all cases: in vitro ADME
[1] = biological target: T1, flavin-containing monooxygenase 3 (FMO3) (Homo sapiens, UniProt P31513); test: Monooxygenases activity screening, FMO3; set-up: key: +, detected; -, not detected; settings: 30 min, 37 °C
T1 construct: purchased Discovery Life Sciences (Huntsville, LA, USA); host or cells: baculovirus-infected insect cells (microsomes, Supersomes)
T1 sequence (P31513 1-532): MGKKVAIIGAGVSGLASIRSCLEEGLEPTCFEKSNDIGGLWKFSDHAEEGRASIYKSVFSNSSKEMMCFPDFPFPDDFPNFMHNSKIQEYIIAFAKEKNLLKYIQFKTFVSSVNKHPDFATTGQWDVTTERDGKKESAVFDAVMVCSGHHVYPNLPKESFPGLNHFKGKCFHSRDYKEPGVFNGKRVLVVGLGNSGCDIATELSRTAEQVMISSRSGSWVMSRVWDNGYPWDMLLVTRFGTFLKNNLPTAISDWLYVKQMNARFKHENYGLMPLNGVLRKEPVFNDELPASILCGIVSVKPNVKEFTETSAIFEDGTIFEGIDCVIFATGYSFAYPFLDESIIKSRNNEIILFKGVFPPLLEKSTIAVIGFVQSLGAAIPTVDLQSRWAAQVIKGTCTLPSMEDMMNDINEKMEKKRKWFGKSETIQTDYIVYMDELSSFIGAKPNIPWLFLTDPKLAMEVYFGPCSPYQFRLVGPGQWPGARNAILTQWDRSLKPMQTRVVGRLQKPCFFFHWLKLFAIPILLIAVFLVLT
Description: (§1) For incubations with CYP2A6 or CYP2C9, phosphate buffer was replaced with 90 mM Tris buffer, according to the manufacturer’s guideline. […] All incubations were done in duplicate and concentrations were fixed. Verapamil (25 µM) was incubated as a positive control.

CYP2C8 = biological target: T2, CYP2C8 (Homo sapiens, UniProt P10632); test: Monooxygenases activity screening, CYP2C8; set-up: key: +, detected; -, not detected; settings: 30 min, 37 °C
T2 construct: purchased Discovery Life Sciences (Huntsville, LA, USA); host or cells: baculovirus-infected insect cells (microsomes, Supersomes)
T2 sequence (P10632 1-490): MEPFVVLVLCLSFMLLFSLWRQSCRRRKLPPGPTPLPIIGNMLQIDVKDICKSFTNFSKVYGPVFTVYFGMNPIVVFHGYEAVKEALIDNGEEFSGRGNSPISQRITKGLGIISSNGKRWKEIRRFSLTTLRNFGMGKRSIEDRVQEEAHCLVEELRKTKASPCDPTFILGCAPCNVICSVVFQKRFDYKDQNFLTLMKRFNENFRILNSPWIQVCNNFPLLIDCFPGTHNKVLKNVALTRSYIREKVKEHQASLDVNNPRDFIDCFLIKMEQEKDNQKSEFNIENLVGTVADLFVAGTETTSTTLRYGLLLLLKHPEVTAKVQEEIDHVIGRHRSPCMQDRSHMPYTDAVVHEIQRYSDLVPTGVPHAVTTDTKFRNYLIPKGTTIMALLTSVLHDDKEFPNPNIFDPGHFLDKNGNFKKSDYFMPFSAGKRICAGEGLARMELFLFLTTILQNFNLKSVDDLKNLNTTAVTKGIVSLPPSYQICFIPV
Description: as §1

CYP2B6 = biological target: T3, CYP2B6 (Homo sapiens, UniProt P20813); test: Monooxygenases activity screening, CYP2B6; set-up: key: +, detected; -, not detected; settings: 30 min, 37 °C
T3 construct: purchased Discovery Life Sciences (Huntsville, LA, USA); host or cells: baculovirus-infected insect cells (microsomes, Supersomes)
T3 sequence (P20813 1-491): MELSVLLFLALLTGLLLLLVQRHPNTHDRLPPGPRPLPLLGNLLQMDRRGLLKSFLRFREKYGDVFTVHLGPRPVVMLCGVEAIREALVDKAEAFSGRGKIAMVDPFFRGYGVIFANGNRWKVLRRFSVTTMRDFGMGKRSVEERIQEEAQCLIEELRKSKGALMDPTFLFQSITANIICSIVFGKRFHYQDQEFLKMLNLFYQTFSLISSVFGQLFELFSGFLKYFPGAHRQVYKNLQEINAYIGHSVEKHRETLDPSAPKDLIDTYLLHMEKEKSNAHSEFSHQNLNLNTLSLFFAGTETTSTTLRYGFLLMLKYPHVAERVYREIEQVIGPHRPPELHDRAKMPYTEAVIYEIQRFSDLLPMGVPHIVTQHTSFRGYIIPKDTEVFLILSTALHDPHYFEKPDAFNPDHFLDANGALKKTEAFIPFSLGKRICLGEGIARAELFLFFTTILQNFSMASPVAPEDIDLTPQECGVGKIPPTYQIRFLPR
Description: as §1

CYP1A2 = biological target: T4, CYP1A2 (Homo sapiens, UniProt P05177); test: Monooxygenases activity screening, CYP1A2; set-up: key: +, detected; -, not detected; settings: 30 min, 37 °C
T4 construct: purchased Discovery Life Sciences (Huntsville, LA, USA); host or cells: baculovirus-infected insect cells (microsomes, Supersomes)
T4 sequence (P05177 1-516): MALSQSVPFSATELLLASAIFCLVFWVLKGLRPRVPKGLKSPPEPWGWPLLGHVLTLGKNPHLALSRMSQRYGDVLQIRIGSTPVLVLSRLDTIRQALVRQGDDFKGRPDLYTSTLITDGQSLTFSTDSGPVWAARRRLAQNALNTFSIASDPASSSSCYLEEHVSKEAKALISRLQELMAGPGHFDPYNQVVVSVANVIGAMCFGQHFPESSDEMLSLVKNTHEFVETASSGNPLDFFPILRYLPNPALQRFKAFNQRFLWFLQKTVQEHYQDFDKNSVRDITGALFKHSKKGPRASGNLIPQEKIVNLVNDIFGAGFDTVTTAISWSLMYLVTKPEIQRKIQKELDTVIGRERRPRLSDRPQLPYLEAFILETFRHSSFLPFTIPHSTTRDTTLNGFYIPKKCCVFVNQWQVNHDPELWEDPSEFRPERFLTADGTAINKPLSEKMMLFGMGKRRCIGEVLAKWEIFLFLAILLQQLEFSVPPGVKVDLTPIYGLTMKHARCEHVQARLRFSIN
Description: as §1

CYP3A5 = biological target: T5, CYP3A5 (Homo sapiens, UniProt P20815); test: Monooxygenases activity screening, CYP3A5; set-up: key: +, detected; -, not detected; settings: 30 min, 37 °C
T5 construct: purchased Discovery Life Sciences (Huntsville, LA, USA); host or cells: baculovirus-infected insect cells (microsomes, Supersomes)
T5 sequence (P20815 whole entry): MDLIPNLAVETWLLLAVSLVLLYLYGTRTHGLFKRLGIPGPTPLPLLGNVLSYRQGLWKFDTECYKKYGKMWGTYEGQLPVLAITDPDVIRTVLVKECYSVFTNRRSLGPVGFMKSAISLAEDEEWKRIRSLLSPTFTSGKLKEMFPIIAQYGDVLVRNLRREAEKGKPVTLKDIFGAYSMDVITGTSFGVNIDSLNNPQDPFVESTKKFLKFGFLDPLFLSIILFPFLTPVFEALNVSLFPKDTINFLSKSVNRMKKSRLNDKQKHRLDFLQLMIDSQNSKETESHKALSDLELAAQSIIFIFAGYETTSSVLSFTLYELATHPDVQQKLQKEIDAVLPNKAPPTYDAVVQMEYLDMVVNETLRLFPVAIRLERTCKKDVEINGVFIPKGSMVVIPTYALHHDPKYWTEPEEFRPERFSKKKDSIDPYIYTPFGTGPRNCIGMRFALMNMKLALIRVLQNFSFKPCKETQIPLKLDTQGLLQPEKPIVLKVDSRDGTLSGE
Description: as §1

CYP2C19 = biological target: T6, CYP2C19 (Homo sapiens, UniProt P33261); test: Monooxygenases activity screening, CYP2C19; set-up: key: +, detected; -, not detected; settings: 30 min, 37 °C
T6 construct: purchased Discovery Life Sciences (Huntsville, LA, USA); host or cells: baculovirus-infected insect cells (microsomes, Supersomes)
T6 sequence (P33261 whole entry): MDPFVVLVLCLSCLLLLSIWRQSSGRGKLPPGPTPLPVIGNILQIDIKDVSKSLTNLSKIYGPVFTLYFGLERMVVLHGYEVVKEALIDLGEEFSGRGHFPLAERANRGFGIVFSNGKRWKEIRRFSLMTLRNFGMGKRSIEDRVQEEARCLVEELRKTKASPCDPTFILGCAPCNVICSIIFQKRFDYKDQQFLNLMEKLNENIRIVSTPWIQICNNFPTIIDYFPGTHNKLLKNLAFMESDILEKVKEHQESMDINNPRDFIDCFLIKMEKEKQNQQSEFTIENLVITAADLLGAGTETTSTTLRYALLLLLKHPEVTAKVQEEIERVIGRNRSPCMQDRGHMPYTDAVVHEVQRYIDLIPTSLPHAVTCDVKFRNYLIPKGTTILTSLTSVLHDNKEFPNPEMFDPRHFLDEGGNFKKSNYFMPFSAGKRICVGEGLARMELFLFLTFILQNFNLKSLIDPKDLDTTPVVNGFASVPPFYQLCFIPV
Description: as §1

CYP2C9 = biological target: T7, CYP2C9 (Homo sapiens, UniProt P11712); test: Monooxygenases activity screening, CYP2C9; set-up: key: +, detected; -, not detected; settings: 30 min, 37 °C
T7 construct: purchased Discovery Life Sciences (Huntsville, LA, USA); host or cells: baculovirus-infected insect cells (microsomes, Supersomes)
T7 sequence (P11712 whole entry): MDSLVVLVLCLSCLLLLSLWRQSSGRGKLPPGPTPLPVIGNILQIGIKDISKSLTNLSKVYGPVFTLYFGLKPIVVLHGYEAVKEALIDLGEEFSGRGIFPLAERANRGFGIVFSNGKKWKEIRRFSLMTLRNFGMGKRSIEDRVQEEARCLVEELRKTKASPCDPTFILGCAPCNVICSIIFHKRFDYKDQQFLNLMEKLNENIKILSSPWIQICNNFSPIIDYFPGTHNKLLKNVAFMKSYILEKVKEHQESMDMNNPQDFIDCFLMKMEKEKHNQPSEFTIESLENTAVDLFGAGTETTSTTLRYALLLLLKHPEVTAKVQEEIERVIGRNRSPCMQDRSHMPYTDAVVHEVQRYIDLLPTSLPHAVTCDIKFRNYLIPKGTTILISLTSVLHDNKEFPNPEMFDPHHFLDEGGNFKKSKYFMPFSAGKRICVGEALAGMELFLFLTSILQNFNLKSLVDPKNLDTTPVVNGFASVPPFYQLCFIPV
Description: as §1

CYP3A4 = biological target: T8, CYP3A4 (Homo sapiens, UniProt P08684); test: Monooxygenases activity screening, CYP3A4; set-up: key: +, detected; -, not detected; settings: 30 min, 37 °C
T8 construct: purchased Discovery Life Sciences (Huntsville, LA, USA); host or cells: baculovirus-infected insect cells (microsomes, Supersomes)
T8 sequence (P08684 whole entry): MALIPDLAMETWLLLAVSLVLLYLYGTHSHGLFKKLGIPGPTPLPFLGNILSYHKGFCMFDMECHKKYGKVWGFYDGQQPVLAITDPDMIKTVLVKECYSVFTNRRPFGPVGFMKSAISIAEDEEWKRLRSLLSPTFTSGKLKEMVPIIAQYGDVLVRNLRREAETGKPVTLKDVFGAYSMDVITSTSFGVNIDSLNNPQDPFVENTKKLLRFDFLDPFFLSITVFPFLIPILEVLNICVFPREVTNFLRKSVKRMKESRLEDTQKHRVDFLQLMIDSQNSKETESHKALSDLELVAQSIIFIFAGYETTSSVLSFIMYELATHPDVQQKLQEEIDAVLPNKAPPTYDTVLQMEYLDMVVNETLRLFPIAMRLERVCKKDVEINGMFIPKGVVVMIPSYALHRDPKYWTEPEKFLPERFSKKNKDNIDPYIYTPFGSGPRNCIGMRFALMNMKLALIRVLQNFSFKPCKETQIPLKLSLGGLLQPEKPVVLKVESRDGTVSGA
Description: as §1

CYP2A6 = biological target: T9, CYP2A6 (Homo sapiens, UniProt P11509); test: Monooxygenases activity screening, CYP2A6; set-up: key: +, detected; -, not detected; settings: 30 min, 37 °C
T9 construct: purchased Discovery Life Sciences (Huntsville, LA, USA); host or cells: baculovirus-infected insect cells (microsomes, Supersomes)
T9 sequence (P11509 1-494): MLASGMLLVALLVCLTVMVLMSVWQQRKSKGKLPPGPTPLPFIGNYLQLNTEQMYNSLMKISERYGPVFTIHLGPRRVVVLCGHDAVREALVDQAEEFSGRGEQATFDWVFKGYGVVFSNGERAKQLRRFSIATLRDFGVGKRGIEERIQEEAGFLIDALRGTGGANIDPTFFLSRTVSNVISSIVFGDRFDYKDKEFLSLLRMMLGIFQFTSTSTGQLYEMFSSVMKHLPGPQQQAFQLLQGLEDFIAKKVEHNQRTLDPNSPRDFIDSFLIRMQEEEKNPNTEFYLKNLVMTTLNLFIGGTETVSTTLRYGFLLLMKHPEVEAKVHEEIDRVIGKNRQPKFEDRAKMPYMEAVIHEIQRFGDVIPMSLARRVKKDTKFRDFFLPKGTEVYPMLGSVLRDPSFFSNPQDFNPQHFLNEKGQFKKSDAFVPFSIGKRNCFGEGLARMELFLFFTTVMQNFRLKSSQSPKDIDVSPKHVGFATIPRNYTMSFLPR
Description: as §1

CYP2D6 = biological target: T10, CYP2D6 (Homo sapiens, UniProt P10635); test: Monooxygenases activity screening, CYP2D6; set-up: key to one-step metabolite detected in CYP2D6 incubation: +, detected; -, not detected; settings: 30 min, 37 °C
T10 construct: purchased Discovery Life Sciences (Huntsville, LA, USA); host or cells: baculovirus-infected insect cells (microsomes, Supersomes)
T10 sequence (P10635 whole entry): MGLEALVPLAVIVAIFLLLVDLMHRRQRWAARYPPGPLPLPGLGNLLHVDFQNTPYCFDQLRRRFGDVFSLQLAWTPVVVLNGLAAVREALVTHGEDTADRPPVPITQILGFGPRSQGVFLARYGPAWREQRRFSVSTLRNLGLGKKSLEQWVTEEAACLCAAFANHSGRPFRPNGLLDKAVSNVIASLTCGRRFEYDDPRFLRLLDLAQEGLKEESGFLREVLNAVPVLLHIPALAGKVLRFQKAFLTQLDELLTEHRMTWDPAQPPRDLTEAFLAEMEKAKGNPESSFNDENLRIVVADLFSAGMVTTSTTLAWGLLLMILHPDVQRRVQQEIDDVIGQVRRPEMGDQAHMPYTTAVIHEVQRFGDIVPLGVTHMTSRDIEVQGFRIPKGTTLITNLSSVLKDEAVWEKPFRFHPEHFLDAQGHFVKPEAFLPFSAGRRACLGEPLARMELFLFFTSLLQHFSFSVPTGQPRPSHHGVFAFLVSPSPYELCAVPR
Description: as §1

CYP2E1 = biological target: T11, CYP2E1 (Homo sapiens, UniProt P05181); test: Monooxygenases activity screening, CYP2E1; set-up: key: +, detected; -, not detected; settings: 30 min, 37 °C
T11 construct: purchased Discovery Life Sciences (Huntsville, LA, USA); host or cells: baculovirus-infected insect cells (microsomes, Supersomes)
T11 sequence (P05181 whole entry): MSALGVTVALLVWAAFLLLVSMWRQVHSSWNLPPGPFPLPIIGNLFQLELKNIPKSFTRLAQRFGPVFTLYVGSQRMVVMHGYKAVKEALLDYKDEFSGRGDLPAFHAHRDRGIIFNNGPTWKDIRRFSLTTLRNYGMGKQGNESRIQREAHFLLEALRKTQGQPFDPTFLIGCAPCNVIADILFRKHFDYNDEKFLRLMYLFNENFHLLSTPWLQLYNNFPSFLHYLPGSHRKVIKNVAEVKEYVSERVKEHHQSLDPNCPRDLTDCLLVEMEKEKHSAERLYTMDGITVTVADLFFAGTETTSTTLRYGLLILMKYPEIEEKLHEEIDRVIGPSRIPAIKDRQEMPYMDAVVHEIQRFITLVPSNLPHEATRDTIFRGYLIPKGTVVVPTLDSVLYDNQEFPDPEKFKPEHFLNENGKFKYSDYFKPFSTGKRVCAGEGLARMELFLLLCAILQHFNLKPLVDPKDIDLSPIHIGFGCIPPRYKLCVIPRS
Description: as §1

[2] = system: pooled human liver S9 fraction (pHLS9) and HepaRG cells; test: In vitro metabolism by pHLS9 and HepaRG cells (LC-HRMS/MS metabolite identification); settings: 25 µM substrate
[3] = In vitro plasma protein binding (ultrafiltration, Centrifree); settings: human, pooled human blood plasma, 30 min, 37 °C, ultrafiltration
Description: PPB was investigated according to a previous study with minor modifications (Kroesen et al. [2025]). Fresh and pooled human blood plasma (450 µL) was spiked with 50 µL of a 5 µM methanolic solution of 4MeO-NE-BP, 4MeO-αP-BP, 4MeO-αP-VP, 4MeS-NE-BP, 4MeS-αP-BP, or 4MeS-αMor-PrP. The mixture was incubated for 30 min at 37 °C and with gentle shaking at 200 rpm. […] The Centrifree devices were centrifuged for 35 min at 1600 × g to obtain 100 µL of the ultrafiltrate (UF). […] Experiments were performed in quadruplicate. Fraction unbound (fu) and PPB were determined by comparing the area ratios of the compound and trimipramine-d3 as an internal standard in the UF and GA using the following equations:1 fu=peak area ratiocompoundUF/ISUF/peak area ratiocompoundGA/ISGA 2 PPB[\%]=1-fu∗100.

[4] = substrate 4MeS-αMor-PrP 25 µM, Table S3.6
[5] = substrate 4MeO-αP-VP 25 µM, Table S3.3
[6] = substrate 4MeS-αP-BP 25 µM, Table S3.5

CC(C(=O)c1ccc(S)cc1)N1CCOCC1 (centres unmarked) [MT3.1]
one-step metabolite detected in FMO3 incubation [1, 4]: - | one-step metabolite detected in CYP2C8 incubation (CYP2C8; [4]): + | one-step metabolite detected in CYP2B6 incubation (CYP2B6; [4]): + | one-step metabolite detected in CYP1A2 incubation (CYP1A2; [4]): + | one-step metabolite detected in CYP3A5 incubation (CYP3A5; [4]): + | one-step metabolite detected in CYP2C19 incubation (CYP2C19; [4]): + | one-step metabolite detected in CYP2C9 incubation (CYP2C9; [4]): - | one-step metabolite detected in CYP3A4 incubation (CYP3A4; [4]): + | one-step metabolite detected in CYP2A6 incubation (CYP2A6; [4]): - | one-step metabolite detected in CYP2D6 incubation (CYP2D6; [4]): + | one-step metabolite detected in CYP2E1 incubation (CYP2E1; [4]): -

CCCC(C(=O)c1ccc(OC)cc1)[N+]1([O-])CCCC1 (centres unmarked) [MO3.4]
one-step metabolite detected in FMO3 incubation [1, 5]: + | one-step metabolite detected in CYP2C8 incubation (CYP2C8; [5]): - | one-step metabolite detected in CYP2B6 incubation (CYP2B6; [5]): - | one-step metabolite detected in CYP1A2 incubation (CYP1A2; [5]): + | one-step metabolite detected in CYP3A5 incubation (CYP3A5; [5]): - | one-step metabolite detected in CYP2C19 incubation (CYP2C19; [5]): - | one-step metabolite detected in CYP2C9 incubation (CYP2C9; [5]): - | one-step metabolite detected in CYP3A4 incubation (CYP3A4; [5]): + | one-step metabolite detected in CYP2A6 incubation (CYP2A6; [5]): + | one-step metabolite detected in CYP2D6 incubation (CYP2D6; [5]): + | one-step metabolite detected in CYP2E1 incubation (CYP2E1; [5]): -

CCC(C(=O)c1ccc(S)cc1)N1CCCC1 (centres unmarked) [MT2.1]
one-step metabolite detected in FMO3 incubation [1, 6]: - | one-step metabolite detected in CYP2C8 incubation (CYP2C8; [6]): - | one-step metabolite detected in CYP2B6 incubation (CYP2B6; [6]): - | one-step metabolite detected in CYP1A2 incubation (CYP1A2; [6]): - | one-step metabolite detected in CYP3A5 incubation (CYP3A5; [6]): - | one-step metabolite detected in CYP2C19 incubation (CYP2C19; [6]): - | one-step metabolite detected in CYP2C9 incubation (CYP2C9; [6]): - | one-step metabolite detected in CYP3A4 incubation (CYP3A4; [6]): - | one-step metabolite detected in CYP2A6 incubation (CYP2A6; [6]): - | one-step metabolite detected in CYP2D6 incubation (CYP2D6; [6]): + | one-step metabolite detected in CYP2E1 incubation (CYP2E1; [6]): -

CCNC(CC)C(=O)c1ccc(SC)cc1 (centres unmarked) [Compound 4MeS-NE-BP, 4’-methylthio-N-ethylbutyrophenone]
metabolic reactions (metabolite IDs) identified [2]: S-demethylation (MT1.1), hydroxylation (MT1.2), N-dealkylation (MT1.3), hydroxylamine formation (MT1.4), hydroxylation + oxidation (MT1.5), N-dealkylation + S-demethylation (MT1.6), and hydroxylamine formation + hydroxylation (MT1.7) | number of metabolites tentatively identified [2]: 7 | fraction unbound at 30 min, 0.5 µM ([3]; read-out: PPB, % (converted)): 0.13 | fraction unbound at 30 min, 0.5 µM ([3]; read-out: fu (unbound fraction)): 0.13 | S-demethylation, only mediated by one CYP isoform (CYP2D6; 25 µM): CYP2D6
